ChEMBL document CHEMBL3797049, “Development of a competitive binding assay for the Burkholderia cenocepacia lectin BC2L-A and structure activity relationship of natural and synthetic inhibitors” (Medchemcomm, 2016)
The source made the active and inactive calls. No cut-off for these calls is given here.

Experiments:
[1] = molecular target: T1, Lectin (Burkholderia cenocepacia (strain ATCC BAA-245 / DSM 16553 / LMG 16656/ NCTC 13227 / J2315 / CF5610) (Burkholderia cepacia (strain J2315)), UniProt B4EH87); experiment: Displacement of N-(fluorescein-5-yl)-N'-(alpha-D-mannopyranosyloxyethyl)-thiocarbamide from Burkholderia cenocepacia J2315 BC2L-A expressed in Escherichia coli BL21 (DE3) cells incubated for 3 to 4 hrs by fluorescence polarization assay
T1 sequence (B4EH87 whole entry): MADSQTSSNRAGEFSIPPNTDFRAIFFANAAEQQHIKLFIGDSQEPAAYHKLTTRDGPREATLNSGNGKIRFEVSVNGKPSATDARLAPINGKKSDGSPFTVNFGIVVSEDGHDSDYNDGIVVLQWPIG

[2] = molecular target: T2, Lectin (Burkholderia cenocepacia (strain ATCC BAA-245 / DSM 16553 / LMG 16656/ NCTC 13227 / J2315 / CF5610) (Burkholderia cepacia (strain J2315))) (UniProt B4EH87); experiment: Displacement of N-(fluorescein-5-yl)-N'-(alpha-D-mannopyranosyloxyethyl)-thiocarbamide from Burkholderia cenocepacia J2315 BC2L-A expressed in Escherichia coli BL21 (DE3) cells up to 666 uM incubated for 3 to 4 hrs by fluorescence polarization assay relative to control
T2 sequence (whole entry): T1 sequence (B4EH87 whole entry)

[3] = molecular target: T1, Lectin (Burkholderia cenocepacia (strain ATCC BAA-245 / DSM 16553 / LMG 16656/ NCTC 13227 / J2315 / CF5610) (Burkholderia cepacia (strain J2315)), UniProt B4EH87); experiment: Binding affinity to Burkholderia cenocepacia J2315 BC2L-A expressed in Escherichia coli BL21 (DE3) cells
[4] = Displacement of N-(fluorescein-5-yl)-N'-(alpha-L-fucopyranosyl-O-ethyl)-thiocarbamide from Pseudomonas aeruginosa LecB expressed in Escherichia coli BL21 (DE3) cells up to 666 uM incubated for 6 hrs by fluorescence polarization assay
[5] = molecular target: T1, Lectin (Burkholderia cenocepacia (strain ATCC BAA-245 / DSM 16553 / LMG 16656/ NCTC 13227 / J2315 / CF5610) (Burkholderia cepacia (strain J2315)), UniProt B4EH87); experiment: Binding affinity to Burkholderia cenocepacia J2315 BC2L-A expressed in Escherichia coli BL21 (DE3) cells by isothermal titration calorimetry
[6] = molecular target: T1, Lectin (Burkholderia cenocepacia (strain ATCC BAA-245 / DSM 16553 / LMG 16656/ NCTC 13227 / J2315 / CF5610) (Burkholderia cepacia (strain J2315)), UniProt B4EH87); experiment: Binding affinity to Burkholderia cenocepacia J2315 BC2L-A expressed in Escherichia coli BL21 (DE3) cells by microcalorimetry

inhibition [2]	Compound	IC50 [1] [µM]	other results
–	CO[C@H]1O[C@H]([C@@H](O)CNC(=O)c2ccccc2)[C@@H](O)[C@H](O)[C@@H]1O	104	–
inactive	C[C@@H]1OC[C@@H](O)[C@H](O)[C@@H]1O	–	–
–	C[C@H](O)[C@@H](O)[C@@H](O)[C@H](O)C=O [L-FUCOSE]	498	IC50 [3]: 2300 µM
inactive	C[C@@H]1OC[C@@H](F)[C@H](O)[C@@H]1O	–	inhibition [4]: inactive
inactive	OC[C@H]1OC(O)[C@@H](F)[C@@H](O)[C@@H]1O (stereo not given in full)	–	inhibition [4]: inactive
inactive	OC[C@H]1OC(O)[C@@H](O)[C@@H](F)[C@@H]1O (stereo not given in full)	–	inhibition [4]: inactive
56%	C=CCO[C@H]1O[C@H](CO)[C@@H](O)[C@H](OC)[C@@H]1O	–	inhibition [4]: inactive
inactive	CO[C@H]1O[C@H](CBr)[C@@H](O)[C@H](O)[C@@H]1O	–	–
–	C=CCO[C@H]1O[C@H](CO)[C@@H](O)[C@H](O)[C@@H]1O	13.6	–
inactive	C=CCO[C@H]1O[C@H](CO)[C@@H](OC)[C@H](O)[C@@H]1O	–	inhibition [4]: inactive
–	Cc1cc(=O)oc2cc(O[C@H]3O[C@H](CO)[C@@H](O)[C@H](O)[C@@H]3O)ccc12	14.5	–
–	CO[C@H]1OC(C(O)CO)C(O)C(O)C1O (stereo not given in full)	–	Kd [5]: 54 µM
inactive	CO[C@H]1O[C@H]([C@H](O)CNC(=O)/C=C/c2ccccc2)[C@@H](O)[C@H](O)[C@@H]1O	–	–
–	OC[C@H]1OC[C@@H](O)[C@@H](O)[C@@H]1O	2.9	–
–	CO[C@H]1O[C@H]([C@@H](O)CNS(=O)(=O)c2c(C)cc(C)cc2C)[C@@H](O)[C@H](O)[C@@H]1O	13.8	–
inactive	CO[C@H]1O[C@H](CN)[C@@H](O)[C@H](O)[C@@H]1O	–	–
–	CO[C@H]1O[C@H]([C@@H](O)CNC(=O)/C=C/c2ccccc2)[C@@H](O)[C@H](O)[C@@H]1O	64	–
inactive	CO[C@H]1O[C@H](CCl)[C@@H](O)[C@H](O)[C@@H]1O	–	–
–	Cc1cc(=O)oc2cc(O[C@@H]3O[C@H](CO)[C@@H](O)[C@H](O)[C@@H]3O)ccc12	7.4	–
–	CO[C@H]1O[C@H]([C@@H](O)CNC(C)=O)[C@@H](O)[C@H](O)[C@@H]1O	116	–
–	C[C@@H]1O[C@H](CO)[C@@H](O)[C@H](O)[C@@H]1O	13	–
–	CO[C@H]1O[C@H](CO)[C@@H](O)[C@H](O)[C@@H]1O	7	Kd [6]: 2.7 µM
inactive	CO[C@H]1O[C@H](CI)[C@@H](O)[C@H](O)[C@@H]1O	–	–
inactive	C[C@@H]1O[C@H](C)[C@@H](O)[C@H](O)[C@@H]1O	–	–
inactive	CO[C@H]1O[C@H]([C@H](O)CNC(=O)c2ccccc2)[C@@H](O)[C@H](O)[C@@H]1O	–	–
–	CO[C@H]1O[C@H]([C@@H](O)CNS(=O)(=O)c2ccc(C)cc2)[C@@H](O)[C@H](O)[C@@H]1O	19.1	–

Compound	inhibition [2]	IC50 [1] [µM]	other results
CO[C@H]1O[C@@H](C)[C@@H](O)[C@@H](O)[C@@H]1O	inactive	–	–
CO[C@@H]1O[C@@H](C)[C@@H](O)[C@@H](O)[C@@H]1O	inactive	–	–
